Data: PubChem BioAssay AID330 (DTP/NCI, 2004)
Toxic doses and inconclusive results are not listed. The calls were made as follows: active = survival T/C of 150% or more; inactive = T/C below 125% in these data. Peptide text beside a SMILES is read from it. * marks the point of attachment. Cbz = O=C(OCc1ccccc1)*; Bn = c1ccc(C*)cc1

System: P388 leukemia ip, CD2F1 mice, survival T/C
Assay: NCI In Vivo Anticancer Drug Screen. Data for tumor model P388 Leukemia (intraperitoneal) in CD2F1 (CDF1) mice
Settings: endpoint: median survival time, higher = longer survival
In short: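 Mice carrying the transplanted tumor received test compound or vehicle. Survival was recorded in each group, and the value is the treated-group measurement divided by that of the vehicle-treated control group.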

[1] = dose: 100.0 mg/kg/injection, schedule: Q04DX003 (ip), vehicle: saline
[2] = dose: 200.0 mg/kg/injection, schedule: Q04DX003 (ip), vehicle: saline
[3] = dose: 50.0 mg/kg/injection, schedule: Q01DX005 (ip), vehicle: Klucel (hydroxypropylcellulose) (HPC)
[4] = dose: 100.0 mg/kg/injection, schedule: Q01DX005 (ip), vehicle: Klucel (hydroxypropylcellulose) (HPC)
[5] = dose: 60.0 mg/kg/injection, schedule: Q01DX005 (ip), vehicle: Klucel (hydroxypropylcellulose) (HPC)
[6] = dose: 120.0 mg/kg/injection, schedule: Q01DX005 (ip), vehicle: Klucel (hydroxypropylcellulose) (HPC)
[7] = dose: 240.0 mg/kg/injection, schedule: Q01DX005 (ip), vehicle: Klucel (hydroxypropylcellulose) (HPC)
[8] = dose: 60.0 mg/kg/injection, schedule: Q01DX005 (ip), vehicle: saline with Tween-80
[9] = dose: 120.0 mg/kg/injection, schedule: Q01DX005 (ip), vehicle: saline with Tween-80
[10] = dose: 240.0 mg/kg/injection, schedule: Q01DX005 (ip), vehicle: saline with Tween-80
[11] = dose: 50.0 mg/kg/injection, schedule: Q01DX005 (ip), vehicle: saline with Tween-80
[12] = dose: 50.0 mg/kg/injection, schedule: Q01DX009 (ip), vehicle: saline with Tween-80
[13] = dose: 25.0 mg/kg/injection, schedule: Q01DX009 (ip), vehicle: saline with Tween-80
[14] = dose: 200.0 mg/kg/injection, schedule: Q01DX005 (ip), vehicle: Klucel (hydroxypropylcellulose) (HPC)
[15] = dose: 50.0 mg/kg/injection, schedule: Q01DX009 (ip), vehicle: Klucel (hydroxypropylcellulose) (HPC)
[16] = dose: 100.0 mg/kg/injection, schedule: Q01DX009 (ip), vehicle: Klucel (hydroxypropylcellulose) (HPC)

Measured: T/C

OCc1ccc(Cl)cc1O
inactive: dose: 12.5 mg/kg/injection, schedule: Q01DX009 (ip), vehicle: distilled water + Tween-80 100 % of control | dose: 25.0 mg/kg/injection, schedule: Q01DX009 (ip), vehicle: distilled water + Tween-80 100 % of control | dose: 50.0 mg/kg/injection, schedule: Q01DX009 (ip), vehicle: distilled water + Tween-80 105 % of control | dose: 100.0 mg/kg/injection, schedule: Q01DX009 (ip), vehicle: distilled water + Tween-80 107 % of control | dose: 200.0 mg/kg/injection, schedule: Q01DX009 (ip), vehicle: distilled water + Tween-80 116 % of control

CCOC(=O)NC(NC(=O)OCC)c1ccccc1[N+](=O)[O-]
inactive: [1] 99 % of control | [2] 99 % of control | dose: 400.0 mg/kg/injection, schedule: Q04DX003 (ip), vehicle: saline 89 % of control

Cc1c(C)n(-c2ccccc2)c2nc(C)n(-c3ccccc3)c(=N)c12
inactive: [3] 101 % of control | [4] 100 % of control

Nc1nc(N)nc(-c2cccnc2)n1
inactive: dose: 100.0 mg/kg/injection, schedule: Q01DX001 (ip), vehicle: saline 109 % of control | dose: 200.0 mg/kg/injection, schedule: Q01DX001 (ip), vehicle: saline 118 % of control | dose: 400.0 mg/kg/injection, schedule: Q01DX001 (ip), vehicle: saline 100 % of control

[CH3][Sn]([CH3])([Cl])[Cl].c1ccc(-c2nnc(-c3ccccn3)nc2-c2ccccc2)cc1
inactive: [5] 95 % of control | [6] 94 % of control | [7] 89 % of control

COc1ccc(C(c2cc3c(cc2O)OCO3)N2CCOCC2)c(OC)c1OC (centres undefined)
inactive: [8] 119 % of control | [9] 109 % of control | [10] 115 % of control

CCOC(=O)/N=c1/nc2ccn(C)c2c(NC(=O)OCC)s1
inactive: dose: 100.0 mg/kg/injection, schedule: Q04DX003 (ip), vehicle: saline with Tween-80 99 % of control | dose: 200.0 mg/kg/injection, schedule: Q04DX003 (ip), vehicle: saline with Tween-80 96 % of control | dose: 400.0 mg/kg/injection, schedule: Q04DX003 (ip), vehicle: saline with Tween-80 96 % of control

CS(=O)(=O)C(c1nc2n(c1O)C(=N)N=N2)c1nc2n(c1O)C(=N)N=N2 (centres undefined)
inactive: dose: 60.0 mg/kg/injection, schedule: Q01DX005 (ip), vehicle: saline 99 % of control | dose: 120.0 mg/kg/injection, schedule: Q01DX005 (ip), vehicle: saline 100 % of control | dose: 240.0 mg/kg/injection, schedule: Q01DX005 (ip), vehicle: saline 105 % of control

C/C(=N\NC(=S)Nc1nccs1)c1ccccn1
inactive: dose: 100.0 mg/kg/injection, schedule: Q04DX003 (ip), vehicle: Klucel (hydroxypropylcellulose) (HPC) 99 % of control | dose: 200.0 mg/kg/injection, schedule: Q04DX003 (ip), vehicle: Klucel (hydroxypropylcellulose) (HPC) 105 % of control | dose: 400.0 mg/kg/injection, schedule: Q04DX003 (ip), vehicle: Klucel (hydroxypropylcellulose) (HPC) 96 % of control

CC(C)C(NC(=O)C(CSCc1ccccc1)NC(=O)OCc1ccccc1)C(=O)O (centres undefined) (Cbz-Cys(Bn)-Val-OH; configuration not given here)
inactive: [3] 97 % of control | [4] 88 % of control

CCn1c(S)c(N=NC(=S)c2ccc3ccccc3n2)c2ccccc21
inactive: dose: 50.0 mg/kg/injection, schedule: Q04DX003 (ip), vehicle: saline 98 % of control | [1] 96 % of control | [2] 103 % of control

O=C1C=CC2(C=C1)OCC(=O)O2
inactive: [8] 100 % of control | [9] 97 % of control | [10] 96 % of control

Cc1cccc(NCc2ccncc2)n1
inactive: dose: 6.25 mg/kg/injection, schedule: Q01DX005 (ip), vehicle: saline with Tween-80 92 % of control | dose: 12.5 mg/kg/injection, schedule: Q01DX005 (ip), vehicle: saline with Tween-80 102 % of control | dose: 25.0 mg/kg/injection, schedule: Q01DX005 (ip), vehicle: saline with Tween-80 100 % of control | [11] 100 % of control

C=C(CC(=O)O)C(N)C(=O)O (centres undefined)
inactive: [5] 104 % of control | [6] 100 % of control | [7] 106 % of control

CC1C(c2ccccc2)OCN1CC=C(c1ccsc1)c1ccsc1 (centres undefined)
inactive: [5] 96 % of control | [6] 91 % of control | [7] 91 % of control

CCOC(OCC)(c1ccccc1)N(C)C
inactive: [8] 92 % of control | [9] 100 % of control | [10] 104 % of control

O=C(/C=C/c1ccc(OCc2ccccc2)cc1)c1c(F)cccc1F
inactive: [12] 99 % of control | dose: 100.0 mg/kg/injection, schedule: Q01DX009 (ip), vehicle: saline with Tween-80 98 % of control | dose: 200.0 mg/kg/injection, schedule: Q01DX009 (ip), vehicle: saline with Tween-80 100 % of control

CCn1c(=O)c2c(NC)snc2n(CC)c1=O
inactive: dose: 50.0 mg/kg/injection, schedule: Q01DX009 (ip), vehicle: saline 97 % of control | dose: 100.0 mg/kg/injection, schedule: Q01DX009 (ip), vehicle: saline 95 % of control | dose: 200.0 mg/kg/injection, schedule: Q01DX009 (ip), vehicle: saline 98 % of control

COc1ccc(CN2C(=O)C(Cl)=C(Cl)C2=O)c(OC)c1
inactive: [8] 100 % of control | [9] 94 % of control

O/N=c1\cc(-c2ccccc2)oc2ccccc12
inactive: dose: 16.7 mg/kg/injection, schedule: Q01DX009 (ip), vehicle: saline with Tween-80 97 % of control | [13] 102 % of control | dose: 37.5 mg/kg/injection, schedule: Q01DX009 (ip), vehicle: saline with Tween-80 100 % of control

COC(=O)/C(C#N)=C/c1cccnc1
inactive: [3] 101 % of control | [4] 101 % of control | [14] 107 % of control

CCN(CC)CCCC(C)NS(=O)(=O)c1cccc2c(N(C)C)cccc12 (centres undefined)
inactive: dose: 6.25 mg/kg/injection, schedule: Q01DX009 (ip), vehicle: water 96 % of control | dose: 12.5 mg/kg/injection, schedule: Q01DX009 (ip), vehicle: water 97 % of control | dose: 25.0 mg/kg/injection, schedule: Q01DX009 (ip), vehicle: water 93 % of control | dose: 50.0 mg/kg/injection, schedule: Q01DX009 (ip), vehicle: water 96 % of control | dose: 100.0 mg/kg/injection, schedule: Q01DX009 (ip), vehicle: water 99 % of control

COc1ccc2cc1CCNC(=O)C1CCCN1C(=O)C1NCCC1O2 (centres undefined)
inactive: dose: 20.0 mg/kg/injection, schedule: Q01DX005 (ip), vehicle: Klucel (hydroxypropylcellulose) (HPC) 92 % of control | dose: 40.0 mg/kg/injection, schedule: Q01DX005 (ip), vehicle: Klucel (hydroxypropylcellulose) (HPC) 104 % of control | dose: 80.0 mg/kg/injection, schedule: Q01DX005 (ip), vehicle: Klucel (hydroxypropylcellulose) (HPC) 107 % of control

COC(=O)C(=O)C1CSC2=C(CS(=O)(=O)c3ccccc32)C1=O (centres undefined)
inactive: [8] 98 % of control | [9] 104 % of control | [10] 104 % of control

Nc1nc(N)nc(N(CCO)CCO)n1
inactive: [3] 111 % of control | [4] 102 % of control | [14] 106 % of control

CCOc1ccccc1NC(=O)CC(=O)N1N=C(c2ccccc2)C(N=Nc2ccc(S(N)(=O)=O)cc2)C1=O (centres undefined)
inactive: [11] 110 % of control | dose: 100.0 mg/kg/injection, schedule: Q01DX005 (ip), vehicle: saline with Tween-80 102 % of control | dose: 200.0 mg/kg/injection, schedule: Q01DX005 (ip), vehicle: saline with Tween-80 102 % of control

COc1cc([N+](=O)[O-])c2nccc(C)c2c1
inactive: dose: 25.0 mg/kg/injection, schedule: Q01DX009 (ip), vehicle: Klucel (hydroxypropylcellulose) (HPC) 100 % of control | [15] 101 % of control | [16] 101 % of control | dose: 200.0 mg/kg/injection, schedule: Q01DX009 (ip), vehicle: Klucel (hydroxypropylcellulose) (HPC) 104 % of control

Cc1cnnc2ccccc12
inactive: dose: 12.5 mg/kg/injection, schedule: Q01DX009 (ip), vehicle: saline with Tween-80 98 % of control | [13] 106 % of control | [12] 106 % of control

CN(C)CCNC(c1ccccc1)C(O)c1ccccc1 (centres undefined)
inactive: [15] 100 % of control | [16] 101 % of control
